The text below walks through data of the supplement of paper PMC10307832.

Assay in all cases: relative viability (nuclei count vs DMSO), 5 days (fraction); higher = more cells survive
Compound in the assay “Decitabine + Palbociclib”: Nc1ncn([C@H]2C[C@H](O)[C@@H](CO)O2)c(=O)n1 [Decitabine] + CC(=O)c1c(C)c2cnc(Nc3ccc(N4CCNCC4)cn3)nc2n(C2CCCC2)c1=O [Palbociclib] (partner 0.5 µM)
The method, boiled down:
(§1)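 Each reported value is a median over duplicate plates. It expresses relative viability: treated-well nuclei count divided by vehicle-well nuclei count. Lung cancer cell lines in 1536-well plates were dosed by pin tool a day after seeding, alone with one drug or with a fixed anchor-drug dose plus five library-drug doses (not always all listed) in √10 steps, and nuclei were counted after 5 days.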

Compound in the assay “Decitabine + Bortezomib”: Nc1ncn([C@H]2C[C@H](O)[C@@H](CO)O2)c(=O)n1 [Decitabine] + CC(C)C[C@H](NC(=O)[C@H](Cc1ccccc1)NC(=O)c1cnccn1)B(O)O [Bortezomib] (partner 0.002 µM)
The method, boiled down:
as §1

Compound in the assay “Decitabine + Vorinostat”: Nc1ncn([C@H]2C[C@H](O)[C@@H](CO)O2)c(=O)n1 [Decitabine] + O=C(CCCCCCC(=O)Nc1ccccc1)NO [Vorinostat] (partner 1 µM)
The method, boiled down:
as §1

Compound in assay [1]: O=C(C[C@H]1NCCC[C@@H]1O)Cn1cnc2cc(Br)c(Cl)cc2c1=O (racemic) [Halofuginone] + CCNC(=O)c1noc(-c2cc(C(C)C)c(O)cc2O)c1-c1ccc(CN2CCOCC2)cc1 [Luminespib] (partner 0.01 µM)
The method, boiled down: as §1

Turning to UMC-11, the relative viability was 0.344 with Decitabine + Palbociclib (first compound 0.04 µM); 0.276 in the assay with Decitabine + Palbociclib (first compound 0.1265 µM); 0.313 with Decitabine + Palbociclib (first compound 0.4 µM); 0.283 in the assay with Decitabine + Palbociclib (first compound 1.265 µM); 0.285 with Decitabine + Palbociclib (first compound 4 µM); 0.681 in the assay with Decitabine + Bortezomib (first compound 0.04 µM). The relative viability turned out to be 0.58 with Decitabine + Bortezomib (first compound 0.1265 µM); 0.31 with Decitabine + Bortezomib (first compound 0.4 µM); 0.275 in the assay with Decitabine + Bortezomib (first compound 1.265 µM); 0.252 with Decitabine + Bortezomib (first compound 4 µM); 0.269 with Decitabine + Vorinostat (first compound 0.04 µM); 0.263 with Decitabine + Vorinostat (first compound 0.1265 µM). The relative viability with Decitabine + Vorinostat (first compound 0.4 µM) is 0.236; with Decitabine + Vorinostat (first compound 1.265 µM), 0.19; with Decitabine + Vorinostat (first compound 4 µM) it was 0.193; in assay [1] (first compound 0.001 µM) it was 1.08; in assay [1] (first compound 0.003162 µM), 1.05; in assay [1] (first compound 0.01 µM), 1.02. For the same cell line, the relative viability in assay [1] (first compound 0.03162 µM) amounted to 0.703; in assay [1] (first compound 0.1 µM), 0.412.
